Like-named read-outs stand apart in the source and are kept apart here.
Legend:
STAT3 = STAT3 (Homo sapiens, UniProt P40763); conditions: in vitro; cited from earlier work
[1] = tested on: human breast tumor xenografts; conditions: cited from earlier work
[2] = tested on: breast carcinoma cell lines with constitutively active STAT3; conditions: cited from earlier work
[3] = tested on: lymphoma and cervical cancer; conditions: cited from earlier work
intracerebral tumors = conditions: mouse, in vivo; cited from earlier work
[4] = tested on: human breast carcinoma and syngeneic murine melanoma; conditions: not in carcinomas that lack constitutive expression of p-STAT3; cited from earlier work
[5] = animals treated with JSI-124 (Fujita et al.); cited from earlier work
[6] = Toxicology of p-STAT3 inhibitors in mice (histology of systemic organs, Luxol fast blue staining of CNS axis); format: in vivo, C57BL/6J mice; conditions: for histological examination of the systemic organs: treated mice
Excerpt: The toxicological properties of the small molecule inhibitors of p-STAT3 appear favorable. […] Because p-STAT3 blockade agents are potent immune activators, nonspecific immune reactivity in the CNS remains a consideration. […] Fujita M, Zhu X, Sasaki K, et al., Inhibition Of STAT3 Promotes The Efficacy Of Adoptive Transfer Therapy Using Type-1 CTLs By Modulation Of The Immunological Microenvironment In A Murine Intracranial Glioma, J Immunol 2008; 180:2089-2098. This lack of induced autoimmunity may be due to STAT3's role as the key regulator of the generation of Th17 cells, which are primary immune cell mediators of autoimmunity. Thus, the inhibitors of p-STAT3 may also be inhibiting the mediators of CNS autoimmunity-Th 17 responses.

[7] = tested on: head and neck carcinoma (MDA1986), pancreatic cancer (MiaPaca2), bladder cancer, glioma (U-87), lymphoma, myeloma, leukemia; conditions: 40 mg/kg intraperitoneally every other day for 28 days; cited from earlier work
[8] = tested on: microglia, systemic APCs and T cells from patients with cancer; assay: WP1066 on immune cells obtained from patients with cancer; format: cell-based
Excerpt: We recently have shown that blocking STAT3 activity by treatment with WP1066 in microglia obtained from the CNS of patients with cancer upregulates co-stimulatory molecules (e.g., CD80, CD86). The expression of co-stimulatory molecules is necessary for T-cell proliferation, and if a T cell encounters APCs, such as microglia/microphages, without co-stimulatory molecules present, the T cells will be rendered anergic. […] Of note, this potent immune activation occurred in immune cells obtained from patients with disease refractory to other conventional immune activators, such as toll-like receptor agonists.

[9] = tested on: human melanoma xenografts and syngeneic murine melanoma; assay: WP1066 in melanoma xenografts and syngeneic melanoma; format: in vivo; conditions: oral gavage
Description: (§1) Iwamaru A, Szymanski S, Iwado E, et al., A Novel Inhibitor Of The STAT3 Pathway Induces Apoptosis In Malignant Glioma Cells Both In Vitro And In Vivo. Oncogene 2006; 26: 2435-2444. […] To determine whether treatment with WP1066 is efficacious against established syngeneic intracerebral tumors, C57BL/6J mice with melanoma tumors (B16) were treated by oral gavage with WP1066 starting on day 3 after tumor implantation. […] Kong L Y, Abou-Ghazal M K, Wei J, et al., A Novel Inhibitor Of STAT3 Activation Is Efficacious Against Established Central Nervous System Melanoma And Inhibits Regulatory T Cells, Clin Cancer Res (Submitted).

[10] = tested on: malignant glioma xenografts (U-87 and U-373); conditions: cited from earlier work
[11] = design: species or system CD1 mice; conditions: in vivo; for mean peak plasma concentration: CD1, mouse, iv
Description: Of central importance to the treatment of CNS gliomas and metastasis is the use of agents with sufficient CNS permeability and subsequent cytotoxic activity, of which there is direct evidence for WP1066 and indirect evidence for JSI-124. To determine the physiological doses of WP1066 that can be achieved in vivo, CD1 mice were given WP1066 as an intravenous bolus (10 or 40 mg/kg) or by oral gavage (40 mg/kg) and killed at various time points up to 24 hours after treatment. […] When WP1066 was delivered intraperitoneally at a dose of 100 mg/kg or intravenously at a dose of 10 mg/kg every other day for up to 2 weeks, plasma concentrations exceeded 1 μM, and CNS concentrations (with an intact blood-brain barrier) exceeded 62 μg/g of tissue (0.185 μM); concentrations in U87-MG malignant glioma-bearing animals exceeded 362 μg/g (1.08 μM). […] Fujita M, Zhu X, Sasaki K, et al., Inhibition Of STAT3 Promotes The Efficacy Of Adoptive Transfer Therapy Using Type-1 CTLs By Modulation Of The Immunological Microenvironment In A Murine Intracranial Glioma, J Immunol 2008; 180:2089-2098.

[12] = tested on: CD4+CD25−CD62Lhi naïve T cells; assay: FoxP3 induction during inducible Treg (iTreg) differentiation; format: cell-based, C57BL/6J mice; conditions: 0, 0.1 and 1.0 μM, 96 hours, flow cytometry (FIG. 2)
Description: (§2) The blockade of activation of STAT3 and its subsequent nuclear translocation inhibits both tumorigenesis and tumor-mediated immunosuppression. […] CD4^+CD25^−CD62L^hi naïve T cells from C57BL/6J mice were stimulated by plate-bound anti-CD3 (2 μg/ml) and soluble anti-CD28 (2 μg/ml) in the presence of TGF-β1 (1 ng/ml) and hIL-2 (200 U/ml), with 0, 0.1, and 1.0 μM WP1066 for inducible Tregs (iTreg) differentiation. CD4^+CD25^+ T cells (natural Tregs, nTreg) were stimulated by plate-bound anti-CD3 (2 μg/ml) and soluble anti-CD28 (2 μg/ml) in the presence of hIL-2 (200 U/ml), with 0, 0.1, and 1.0 μM WP1066. Ninety-six hours after stimulation, the cells were analyzed for intracellular FoxP3 expression by flow cytometry. The percentage of FoxP3 expressing T cells is shown.
(§3) In additional experiments, CD4^+CD25^−CD62L^hi naïve T cells from C57BL/6J mice were stimulated by plate-bound anti-CD3 (2 μg/ml) and soluble anti-CD28 (2 μg/ml) in the presence of TGF-β1 (1 ng/ml) and hIL-2 (200 U/ml), with 0, 0.1, and 1.0 μM WP1066 for inducible Tregs (iTreg) differentiation. CD4^+CD25^+ T cells (natural Tregs, nTreg) were stimulated by plate-bound anti-CD3 (2 μg/ml) and soluble anti-CD28 (2 μg/ml) in the presence of hIL-2 (200 U/ml), with 0, 0.1, and 1.0 μM WP1066. Ninety-six hours after stimulation, the cells were analyzed for intracellular FoxP3 expression by flow cytometry.

melanoma tumors (B16) = assay: WP1066 against established syngeneic intracerebral tumors; format: in vivo, C57BL/6J mice
Description: as §1
Fujita M, Zhu X, Sasaki K, et al., Inhibition Of STAT3 Promotes The Efficacy Of Adoptive Transfer Therapy Using Type-1 CTLs By Modulation Of The Immunological Microenvironment In A Murine Intracranial Glioma, J Immunol 2008; 180:2089-2098. […] Furthermore, when JSI-124 was combined with adoptive transfer of type I cytotoxic T lymphocytes, survival was further enhanced compared with treatment with either modality alone. The authors concluded that the inhibition of STAT3 could reverse the immune-suppressive immune microenvironment and promote the efficacy of adoptive transfer therapy. Id.

[13] = tested on: CD4+CD25+ T cells (natural Tregs); assay: FoxP3 expression in natural Tregs (nTreg); format: cell-based, C57BL/6J mice; conditions: 0, 0.1 and 1.0 μM, 96 hours, flow cytometry (FIG. 2)
Description: as §2, §3

[14] = tested on: human lung cancer xenografts; conditions: cited from earlier work
[15] = tested on: STAT3 in HaCaT keratinocytes; assay: pSTAT3 level in HaCaT keratinocytes (MSD chemiluminescent detection); format: cell-based, human; conditions: for Relative level of pSAT3: HaCaT cells, stimuli for 30 minutes
Description: Prior to experiments, the DMEM medium was changed to KGM-SFM containing rEGF and bovine pituitary extract for 12 hours, and the cells then exposed to various stimuli for 30 minutes. Cell lysates were extracted in IP lysis buffer were diluted in MSD extraction buffer and 25 uL of the cell lysate containing 10 ug protein was used in the analysis via chemiluminescent detection (MSD Technology). To test for inhibition by WP1220 (WP), cells were pre-incubated with WP1220 prior to the addition of IFN α.

Chain of STAT3 (P40763 whole entry, species assumed): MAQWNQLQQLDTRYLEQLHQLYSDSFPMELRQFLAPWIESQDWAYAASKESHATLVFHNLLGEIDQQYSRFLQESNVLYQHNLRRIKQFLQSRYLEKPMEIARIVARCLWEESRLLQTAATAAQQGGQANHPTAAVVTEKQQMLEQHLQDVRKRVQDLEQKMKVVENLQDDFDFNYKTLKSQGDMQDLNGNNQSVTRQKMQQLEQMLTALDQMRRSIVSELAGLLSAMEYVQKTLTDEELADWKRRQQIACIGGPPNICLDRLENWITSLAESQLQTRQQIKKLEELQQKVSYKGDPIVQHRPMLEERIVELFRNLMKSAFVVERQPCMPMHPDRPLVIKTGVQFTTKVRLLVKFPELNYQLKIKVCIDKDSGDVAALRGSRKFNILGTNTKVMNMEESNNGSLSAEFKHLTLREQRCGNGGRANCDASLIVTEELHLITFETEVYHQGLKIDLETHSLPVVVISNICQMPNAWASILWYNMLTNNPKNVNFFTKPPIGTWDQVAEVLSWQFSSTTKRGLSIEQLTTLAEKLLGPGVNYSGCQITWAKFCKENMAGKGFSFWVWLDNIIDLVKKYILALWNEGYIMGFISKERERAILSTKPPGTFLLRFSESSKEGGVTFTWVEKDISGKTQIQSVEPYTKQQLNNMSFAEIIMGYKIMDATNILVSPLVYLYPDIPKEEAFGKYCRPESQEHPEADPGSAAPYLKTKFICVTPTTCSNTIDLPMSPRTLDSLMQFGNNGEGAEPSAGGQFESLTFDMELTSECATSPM

In the case of `N#C/C(=C\c1ccc(O)c(O)c1)C(=O)NCc1ccccc1` [AG490, (E)-N-benzyl-2-cyano-3-(3,4-dihydroxyphenyl)acrylamide], the IC50 (STAT3) is given as greater than 50 µM.

For `Cc1ccc(S(=O)(=O)OCC(=O)Nc2ccc(C(=O)O)c(O)c2)cc1` [Example S31-301], the “in vivo tumor growth” value [1] is given as “suppress the in vivo growth of human breast tumor xenografts” and the growth and apoptosis [2] is given as “inhibit growth and induce apoptosis preferentially”.

For `CC(C)(O)/C=C/C(=O)[C@](C)(O)[C@H]1[C@H](O)C[C@@]2(C)[C@@H]3CC=C4[C@@H](C=C(O)C(=O)C4(C)C)[C@]3(C)C(=O)C[C@]12C` [JSI-124, cucurbitacin I], the in vitro activity [3] is given as “in vitro activity against lymphoma and cervical cancer”, the survival (intracerebral tumors) is given as “prolonged survival” and the “in vivo tumor growth” value [4] is given as “inhibit the in vivo growth of human breast carcinoma and syngeneic murine melanoma”. The induced autoimmunity [5] was “no evidence of induced autoimmunity” and the “histological examination of the systemic organs” value [6] was “failed to reveal any major toxicities”.

For `C[C@H](NC(=O)/C(C#N)=C/c1cccc(Br)n1)c1ccccc1` [WP1066, (S,E)-3-(6-bromopyridin-2-yl)-2-cyano-N-(1-phenylethyl)acrylamide], the tumor growth [7] is listed as “statistically significant suppression of tumor growth”, the “immune-suppressive cytokines such as TGF-β” value [8] is listed as “inhibits” and the “production of pro-inflammatory cytokines (IL-2, IL-4, IL-12, IL-15) by systemic APCs” value ([8]; immune-suppressed patients) is listed as “induces”. The “co-stimulatory molecules (CD80, CD86) on microglia” value ([8]; microglia from the CNS of patients with cancer) was “upregulates”, the tumor growth [9] was “marked growth suppression” and the “duration of p-STAT3 inhibition in excised tumors after the final injection” value ([10]; immunohistochemical analysis) was “at least 3 weeks”. The tumor growth ([10]; systemic intraperitoneal administration, 30-day follow-up) was “significant inhibition of tumor growth”, the “mean peak plasma concentration” value ([11]; 10 mg/kg) was 1.05 µM and the “mean peak plasma concentration” value ([11]; 40 mg/kg) was 4.31 µM. For the same molecule, the “mean peak plasma concentration (oral bioavailability studies)” value ([11]; mouse, po, 40 mg/kg) was “greater than 2 μM”, the “FoxP3 induction in T cells” value [12] was “inhibiting FoxP3 induction” and the “in vivo efficacy in immune-incompetent background” value (melanoma tumors (B16); established intracerebral tumors, immune-incompetent background) was “ablated”. For the same molecule, the animals surviving long-term (melanoma tumors (B16); oral gavage starting on day 3 after tumor implantation, vehicle control 0%) was 80%, the “FoxP3 in natural Tregs” value [13] was “down-regulates FoxP3” and the “induction of autoimmunity in CNS (Luxol fast blue staining)” value ([6]; C57BL/6J mice) was “no evidence of induction of autoimmunity”. The local tolerability ([6]; mouse, in vivo) was “localized inflammatory responses” and the “histological examination of the systemic organs” value [6] was “failed to reveal any major toxicities”.

For Cucurbitacin Q, the “in vivo tumor growth” value [14] is given as “suppressed in vivo growth of human lung cancer xenografts”.

For “EGF: growth factor, stimulus in HaCaT pSTAT3 test (NSDSECPLSHDGYCLHDGVCMYIEALDKYACNCVVGYIGERCQYRDLKWWELR; Epidermal growth factor; UniProt P01133 971-1023, looked up)”, the “Relative level of pSAT3” value [15] was “+ (+=less than 200 fold)”.

For “IL-6: cytokine, stimulus in HaCaT pSTAT3 test”, the “STAT3 activation in keratinocytes” value [15] was “potently induce STAT3 activation” and the “Relative level of pSAT3” value [15] was “+++++ (+++++=400-500 fold)”.

In the case of “bFGF: basic fibroblast growth factor, stimulus in HaCaT pSTAT3 test”, the “Relative level of pSAT3” value [15] is reported as “+ (+=less than 200 fold)”.

Reference: patent US20130129675A1, “INTERFERON THERAPIES IN COMBINATION WITH BLOCKADE OF STAT3 ACTIVATION” (BOARD OF REGENTS, THE UNIVERSITY OF TEXAS SYSTEM, priority 2009, published 2013)
